In patent US9914737B2, “Triazolopyrimidinone or triazolopyridinone derivatives, and use thereof” (ST PHARM CO., LTD., priority 2014, dated 2018):
Where a name gives a salt, the structure may show the parent alone.

Biological target: T1, tankyrase 1 (Homo sapiens, UniProt O95271)
T1 construct: purchased Trevigen 4700-096-K
T1 sequence (O95271 1-1327): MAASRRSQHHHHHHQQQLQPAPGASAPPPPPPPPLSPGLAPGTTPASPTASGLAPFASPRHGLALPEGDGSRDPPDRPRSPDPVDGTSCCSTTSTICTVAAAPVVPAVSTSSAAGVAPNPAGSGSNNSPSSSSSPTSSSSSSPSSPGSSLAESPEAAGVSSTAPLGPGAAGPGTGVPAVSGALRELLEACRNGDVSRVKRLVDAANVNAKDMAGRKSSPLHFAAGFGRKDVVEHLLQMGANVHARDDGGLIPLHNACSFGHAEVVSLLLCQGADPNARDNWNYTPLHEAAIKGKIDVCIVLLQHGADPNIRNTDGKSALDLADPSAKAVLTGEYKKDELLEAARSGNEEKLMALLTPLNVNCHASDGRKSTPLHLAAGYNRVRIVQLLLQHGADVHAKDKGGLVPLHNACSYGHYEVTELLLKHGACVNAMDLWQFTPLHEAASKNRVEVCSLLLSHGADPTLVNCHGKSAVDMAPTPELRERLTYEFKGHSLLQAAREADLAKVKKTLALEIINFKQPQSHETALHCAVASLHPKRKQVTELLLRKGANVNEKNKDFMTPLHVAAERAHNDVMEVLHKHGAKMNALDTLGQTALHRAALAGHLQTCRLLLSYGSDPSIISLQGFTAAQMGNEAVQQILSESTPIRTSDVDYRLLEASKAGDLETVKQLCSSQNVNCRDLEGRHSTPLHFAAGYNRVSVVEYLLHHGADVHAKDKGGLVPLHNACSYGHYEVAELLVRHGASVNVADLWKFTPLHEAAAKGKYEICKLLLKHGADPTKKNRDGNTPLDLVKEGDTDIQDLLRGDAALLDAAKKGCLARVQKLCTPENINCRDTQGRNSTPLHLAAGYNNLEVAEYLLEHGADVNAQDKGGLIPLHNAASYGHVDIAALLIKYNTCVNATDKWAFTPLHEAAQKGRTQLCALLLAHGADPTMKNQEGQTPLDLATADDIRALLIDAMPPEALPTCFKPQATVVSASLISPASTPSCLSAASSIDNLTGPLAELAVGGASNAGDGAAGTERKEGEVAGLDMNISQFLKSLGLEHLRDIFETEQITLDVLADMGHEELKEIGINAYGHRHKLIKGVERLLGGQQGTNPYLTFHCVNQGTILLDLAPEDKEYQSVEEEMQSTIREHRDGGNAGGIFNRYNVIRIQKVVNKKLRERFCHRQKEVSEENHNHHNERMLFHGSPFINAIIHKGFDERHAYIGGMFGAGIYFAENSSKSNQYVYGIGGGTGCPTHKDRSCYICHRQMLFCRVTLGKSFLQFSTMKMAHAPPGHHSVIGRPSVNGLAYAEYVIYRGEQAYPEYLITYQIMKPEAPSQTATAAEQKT
Assay: Analysis of activity of tankyrase 1 (Trevigen kit, ELISA absorbance at 450 nm)
Type: biochemical
Conditions: not given
Method: Activities of novel compounds synthesized according to Examples 1 to 72 against tankyrase 1 were analyzed using a Trevigen kit (Cat. No. 4700-096-K). Poly PAR histone protein-coated 96-well plate, anti-PAR monoclonal antibody and goat anti-mouse IgG-HRP were used for measurement of absorbance by ELISA method. Specifically, 20× I-PAR assay buffer was diluted to 1× by adding water, and 50 μL of the diluted buffer was added to each well of the 96-well plate followed by reacting at rt for 30 min. Then, the supernatant was completely removed from each well and 10 μL of 1× I-PAR assay buffer and 15 μL of assay substrate were added to each well along with 1 μL of a 50× solution of inhibitors to be tested, which were the compounds obtained in the Examples 1 to 72. 10 mUnits/μL of tankyrase 1 enzyme was diluted 50-fold with 1× I-PAR assay buffer and 25 μL of the diluted enzyme was added to each well and reacted while stirring at rt for 30 min. One without any compound of the present invention was used as a positive control and another containing 1× I-PAR assay buffer with the same volume instead of tankyrase 1 enzyme was used as a negative control. Upon completion of the reaction, 200 μL of PBSX, which was prepared by adding 0.1% triton X-100 to PBS, was added and removed and this washing process was repeated twice. Washing was repeated twice more using PBS in the same manner. 5× antibody diluent was diluted with distilled water to 1× concentration, 50 μL of the diluted goat anti-mouse IgG-HRP to 1/2000 was added to each well and reacted while stirring at rt for 30 min. Washes were carried out twice using PBSX and PBS, respectively. After adding 50 μL of TACS-sapphire to each well of the plate, the plate was blocked from light to react for 10 min to 15 min and the color of the reaction solution turned blue. To stop the reaction, 50 μL of 0.2N HCl was added to turn the solution yellow. Finally, the absorbance of the resulting solution was measured at 450 nm.

SMILES | IC50
CC(C)Oc1cc(F)c(N2CCN(c3nc4c(nnn4C)c(=O)[nH]3)CC2)c(F)c1 [compound 9, 5-(4-(2,6-Difluoro-4-isopropoxyphenyl)piperazin-1-yl)-3-methyl-3H-[1,2,3]triazolo[4,5-d]pyrimidin-7(6H)-one] | 60.9 nM

Same assay, conditions: tankyrase 1 enzyme, Trevigen kit Cat. No. 4700-096-K, 30 min at rt; read-out: TNKS1 (IC50)

SMILES | IC50
COCCCc1cc(F)c(N2CCN(c3nc4c(nnn4C)c(=O)[nH]3)CC2)c(F)c1 [compound 40, 5-(4-(2,6-Difluoro-4-(3-methoxypropyl)phenyl)piperazin-1-yl)-3-methyl-3H-[1,2,3]triazolo[4,5-d]pyrimidin-7(6H)-one] | 93.1 nM
Cn1nnc2c(=O)[nH]c(N3CCN(c4c(F)cc(OCCN5CCC(C)(O)CC5)cc4F)CC3)nc21 [compound 43, 5-(4-(2,6-Difluoro-4-(2-(4-hydroxy-4-methylpiperidin-1-yl)ethoxy)phenyl)piperazin-1-yl)-3-methyl-3H-[1,2,3]triazolo[4,5-d]pyrimidin-7(6H)-one] | 50.9 nM
Cn1nnc2c(=O)[nH]c(N3CCN(c4c(F)cc(OCC(O)CO)cc4F)CC3)cc21 (centres unmarked) [compound 59, 6-(4-(4-(2,3-Dihydroxypropoxy)-2,6-difluorophenyl)piperazin-1-yl)-1-methyl-1H-[1,2,3]triazolo[4,5-c]pyridin-4(5H)-one] | 16 nM
CN1CCN(Cc2cc(F)c(N3CCN(c4cc5c(nnn5C)c(=O)[nH]4)CC3)c(F)c2)CC1 [compound 61, 6-(4-(2,6-Difluoro-4-((4-methylpiperazin-1-yl)methyl)phenyl)piperazin-1-yl)-1-methyl-1H-[1,2,3]triazolo[4,5-c]pyridin-4(5H)-one] | 28.2 nM
COCCOc1cc(F)c(C2(O)CCN(c3nc4c(nnn4C)c(=O)[nH]3)CC2)c(F)c1 [compound 25, 5-(4-(2,6-Difluoro-4-(2-methoxyethoxy)phenyl)-4-hydroxypiperidin-1-yl)-3-methyl-3H-[1,2,3]triazolo[4,5-d]pyrimidin-7(6H)-one] | 33.1 nM
Cn1nnc2c(=O)[nH]c(N3CCN(c4c(F)cc(OCCN5CCC(O)C5)cc4F)CC3)nc21 (centres unmarked) [compound 41, 5-(4-(2,6-Difluoro-4-(2-(3-hydroxypyrrolidin-1-yl)ethoxy)phenyl)piperazin-1-yl)-3-methyl-3H-[1,2,3]triazolo[4,5-d]pyrimidin-7(6H)-one] | 71.3 nM
C[C@@H](N)C(=O)OCCOc1cc(F)c(N2CCN(c3nc4c(nnn4C)c(=O)[nH]3)CC2)c(F)c1 [compound 10, (R)-2-(3,5-difluoro-4-(4-(3-methyl-7-oxo-6,7-dihydro-3H-[1,2,3]triazolo[4,5-d]pyrimidin-5-yl)piperazin-1-yl)phenoxy)ethyl2-aminopropanoate hydrochloride] | 32 nM
COC(C)c1cc(F)c(N2CCN(c3cc4c(nnn4C)c(=O)[nH]3)CC2)c(F)c1 (centres unmarked) [compound 64, 6-(4-(2,6-Difluoro-4-(1-methoxyethyl)phenyl)piperazin-1-yl)-1-methyl-1H[1,2,3]triazolo[4,5-c]pyridin-4(5H)-one] | 31.2 nM
Cn1nnc2c(=O)[nH]c(N3CCN(c4c(F)cc(OCCCN5CCCCC5)cc4F)CC3)nc21 [compound 33, 5-(4-(2,6-Difluoro-4-(3-(piperidin-1-yl)propoxy)phenyl)piperazin-1-yl)-3-methyl-3H-[1,2,3]triazolo[4,5-d]pyrimidin-7(6H)-one] | 51.3 nM
C[C@H](N)C(=O)OCCOc1cc(F)c(N2CCN(c3nc4c(nnn4C)c(=O)[nH]3)CC2)c(F)c1 [compound 11, (S)-2-(3,5-difluoro-4-(4-(3-methyl-7-oxo-6,7-dihydro-3H-[1,2,3]triazolo[4,5-d]pyrimidin-5-yl)piperazin-1-yl)phenoxy)ethyl2-aminopropanoate hydrochloride] | 14.5 nM
Cn1nnc2c(=O)[nH]c(N3CCN(c4c(F)cc(OCCCN5CCCCC5)cc4F)CC3)cc21 [compound 69, 6-(4-(2,6-Difluoro-4-(3-(piperidin-1-yl)propoxy)phenyl)piperazin-1-yl)-1-methyl-1H-[1,2,3]triazolo[4,5-c]pyridin-4(5H)-one] | 19.1 nM
Cn1nnc2c(=O)[nH]c(N3CCN(c4c(F)cc(OCCN)cc4F)CC3)cc21 [compound 71, 6-(4-(4-(2-Aminoethoxy)-2,6-difluorophenyl)piperazin-1-yl)-1-methyl-1H-[1,2,3]triazolo[4,5-c]pyridin-4(5H)-one] | 24.9 nM
COCCOc1cc(F)c(C2=CCN(c3nc4c(nnn4C)c(=O)[nH]3)CC2)c(F)c1 [compound 44, 5-(4-(2,6-Difluoro-4-(2-methoxyethoxy)phenyl)-5,6-dihydropyridin-1(2H)-yl)-3-methyl-3H-[1,2,3]triazolo[4,5-d]pyrimidin-7(6H)-one] | 52.9 nM
